{"source": "patent US9732053B2", "about": "“1-[2-(2,4-dimethylphenylsulfanyl) phenyl]piperazine acetate in crystalline form” (LEK PHARMACEUTICALS D.D., priority 2013, dated 2017)", "key": {"[1]": {"conditions": "room temperature; data from WO 2007/144005 A1 and WO 2010/121621 A1; cited from earlier work"}, "[2]": {"assay": "Gravimetric moisture sorption/desorption cycle", "format": "physicochemical", "conditions": "for Δm (0-80% RH), water absorption: 25° C.; for Structural changes during moisture sorption: sorption desorption cycle, XRPD", "experimental": "Moisture sorption isotherms were recorded with an SPSx-1μ moisture sorption analyzer (ProUmid, Ulm). The measurement cycle was started at 3% relative humidity (RH). Then the RH was increased from 5% to 75%, decreased to 0% and increased to 80% in 5% steps. Finally the RH was decreased to 0% in 10% steps and equilibrated in a last step to 35%. The time per step was set to a minimum of 1 hour and a maximum of 3 hours. If an equilibrium condition with a constant mass of ±0.01% within 1 hour was reached before the maximum time for all examined samples, the sequential humidity step was applied before the maximum time of 3 hours. If no equilibrium was achieved, the consecutive humidity step was applied after the maximum time of 3 hours. The temperature was 25±0.1° C. The final water content was determined by coulometric Karl Fischer titration.\nCoulometric Karl Fischer titration was performed with a Metrohm 831 KF Coulometer equipped with a double-platinum detecting electrode, a Metrohm 832 KF Thermoprep oven (130° C.) and Hydranal Coulomat AK as Karl Fischer reagent."}, "[3]": {"assay": "Slurry experiments in n-heptane for thermodynamic stability (Examples 12-13)", "format": "physicochemical", "conditions": "room temperature", "experimental": "Slurry experiments were performed to determine the order of the thermodynamic stability of the solid state forms at room temperature (see also Examples 12-13 of the present invention).\n35 mg of vortioxetine acetate form Ill was suspended in 0.5 mL n-heptane and stirred with a magnetic stirrer at room temperature for 4 weeks.\n25 mg of vortioxetine acetate form I was suspended in 0.5 mL n-heptane and stirred with a magnetic stirrer at room temperature for 24 h."}, "[4]": {"assay": "Water solubility determination of vortioxetine acetate form III (Example 9)", "format": "physicochemical", "experimental": "100 μL water was added to 100.34 mg of vortioxetine acetate form Ill. The mixture was vigorously shaken for 2 min and placed at 25° C. for 15 min. The solid was not completely dissolved, therefore a further 100 μL of water was added and the dissolving procedure repeated. […] According to […]"}, "[5]": {"assay": "Stress tests at increased relative humidity with XRPD analysis (Examples 10-11)", "format": "physicochemical", "experimental": "X-ray powder diffractograms (XRPD) were obtained with an X'Pert PRO diffractometer (PANalytical, Almelo, The Netherlands) equipped with a theta/theta coupled goniometer in transmission geometry, programmable XYZ stage with well plate holder, Cu-Kα1,2 radiation source (wavelength 0.15419 nm) and a solid state PIX'cel detector. The diffractograms were recorded at a tube voltage of 45 kV, tube current of 40 mA applying a step size of 0.013° 2-theta with 40 s per step (255 channels) in the angular range of 2° to 40° 2-theta at ambient conditions. A typical precision of the 2-theta values is in the range of about ±0.2° 2-theta. Thus a diffraction peak that appears at 5.0° 2-theta can appear between 4.8 and 5.2° 2-theta on most X-ray diffractometers under standard conditions.\n42 mg of vortioxetine acetate form Ill was stressed at 40° C./75% RH for 4 weeks.\n34 mg of vortioxetine acetate form Ill were stressed at RT/97% RH for 4 weeks."}, "[6]": {"conditions": "listed as acetate form I, acetate"}, "[7]": {"conditions": "listed as acetate form III, acetate"}}, "note": "Counter-ions that a name gives are not always drawn."}
{"compound": "CC(O)C(=O)O.Cc1ccc(Sc2ccccc2N2CCNCC2)c(C)c1", "note": "[DL-lactate form β]", "values": [{"measurement": "Aqueous solubility", "setting": "[1]", "value": 8, "unit": "mg base/mL"}]}
{"compound": "Br.Cc1ccc(Sc2ccccc2N2CCNCC2)c(C)c1", "note": "[HBr form α]", "values": [{"measurement": "Aqueous solubility", "setting": "[1]", "value": 2, "unit": "mg base/mL"}]}
{"compound": "Br.Cc1ccc(Sc2ccccc2N2CCNCC2)c(C)c1", "note": "[HBr form β]", "values": [{"measurement": "Aqueous solubility", "setting": "[1]", "value": 1.2, "unit": "mg base/mL"}]}
{"compound": "Cc1ccc(Sc2ccccc2N2CCNCC2)c(C)c1", "note": "[HCl MH]", "values": [{"measurement": "Aqueous solubility", "setting": "[1]", "value": 2, "unit": "mg base/mL"}]}
{"compound": "Cc1ccc(Sc2ccccc2N2CCNCC2)c(C)c1.Cl", "note": "[HCl]", "values": [{"measurement": "Aqueous solubility", "setting": "[1]", "value": 3, "unit": "mg base/mL"}]}
{"compound": "CC(O)C(=O)O.Cc1ccc(Sc2ccccc2N2CCNCC2)c(C)c1", "note": "[L-lactate form MH2]", "values": [{"measurement": "Aqueous solubility", "setting": "[1]", "value": 26, "unit": "mg base/mL"}]}
{"compound": "Cc1ccc(Sc2ccccc2N2CCNCC2)c(C)c1", "note": "[free base, 1-[2-(2,4-Dimethylphenylsulfanyl)phenyl]piperazine]", "values": [{"measurement": "Aqueous solubility", "setting": "[1]", "value": 0.1, "unit": "mg base/mL"}]}
{"compound": "CC(=O)O.Cc1ccc(Sc2ccccc2N2CCNCC2)c(C)c1", "note": "[vortioxetine acetate form I, 1-[2-(2,4-dimethylphenylsulfanyl)phenyl]piperazine acetate]", "values": [{"measurement": "Δm (0-80% RH), water absorption", "setting": "[2]; [6]", "value": "+2%"}, {"measurement": "Δm (0-80% RH), water absorption", "setting": "[2]; listed as form I, acetate", "value": 2, "unit": "%"}, {"measurement": "Structural changes during moisture sorption", "setting": "[2]; [6]", "value": "partial decomposition to free base"}, {"measurement": "Structural changes during moisture sorption", "setting": "[2]; listed as form I, acetate", "value": "partial decomposition of the acetate salt to the free base"}, {"measurement": "Structural changes after slurry (XRPD)", "setting": "[3]; stirred 24 h, acetate", "value": "transformed to form III"}, {"measurement": "Structural changes after slurry (XRPD)", "setting": "[3]; stirred 24 h, listed as Form I of vortioxetine acetate", "value": "undergoes a transition to form III"}]}
{"compound": "CC(=O)O.Cc1ccc(Sc2ccccc2N2CCNCC2)c(C)c1", "note": "[vortioxetine acetate form III, 1-[2-(2,4-dimethylphenylsulfanyl)phenyl]piperazine acetate]", "values": [{"measurement": "Aqueous solubility calculated as free base", "setting": "[4]; 25° C. / room temperature, converted from acetate salt by Equation 1", "value": 278, "unit": "mg base/mL"}, {"measurement": "solubility", "setting": "[4]; thermodynamic from solid, 25° C., 100.34 mg dissolved in 300 μL, read-out: Solubility of the acetate salt in water", "value": 334, "unit": "mg/mL"}, {"measurement": "Δm (0-80% RH), water absorption", "setting": "[2]; [7]", "value": "+0.4%^"}, {"measurement": "Hygroscopicity according to European Pharmacopoeia", "setting": "[2]; gravimetric moisture sorption desorption curve, FIG. 6", "value": "only slightly hygroscopic"}, {"measurement": "Water content", "setting": "[2]; relative humidity of about 0%", "value": "about 0.3%"}, {"measurement": "Water content", "setting": "[2]; relative humidity of about 80%, acetate", "value": "less than 0.7%"}, {"measurement": "Water content", "setting": "[2]; relative humidity of about 80%, listed as form III of vortioxetine acetate, acetate", "value": "about 0.7%"}, {"measurement": "Structural changes during moisture sorption", "setting": "[2]; [7]", "value": "no changes from 0-97% RH"}, {"measurement": "Structural changes after stress (XRPD)", "setting": "[5]; 40° C./75% RH for 4 weeks", "value": "no structural changes"}, {"measurement": "Structural changes after stress (XRPD)", "setting": "[5]; RT/97% RH for 4 weeks", "value": "no structural changes"}, {"measurement": "Structural changes after slurry (XRPD)", "setting": "[3]; stirred 4 weeks, acetate", "value": "does not undergo any transformation"}, {"measurement": "Structural changes after slurry (XRPD)", "setting": "[3]; stirred 4 weeks, listed as vortioxetine acetate form Ill", "value": "no structural changes"}]}
{"compound": "fumarate", "values": [{"measurement": "Aqueous solubility", "setting": "[1]", "value": 0.4, "unit": "mg base/mL"}]}
{"compound": "maleate", "values": [{"measurement": "Aqueous solubility", "setting": "[1]", "value": "≈1 mg base/mL"}]}
{"compound": "phosphate", "values": [{"measurement": "Aqueous solubility", "setting": "[1]", "value": "≈1 mg base/mL"}]}
